Source: US11497752B2, “Compounds and uses thereof” (Foghorn Therapeutics Inc., priority 2018, dated 2022)

Experiments:
BRG-1 = BRG-1 (Homo sapiens, UniProt P51532); assay: ATPase catalytic activity of BRG-1 (ADP-Glo in vitro biochemical assay)
BRM = BRM (Homo sapiens, UniProt P51531); assay: ATPase catalytic activity of BRM (ADP-Glo in vitro biochemical assay)
BRM, sequence (P51531 whole entry): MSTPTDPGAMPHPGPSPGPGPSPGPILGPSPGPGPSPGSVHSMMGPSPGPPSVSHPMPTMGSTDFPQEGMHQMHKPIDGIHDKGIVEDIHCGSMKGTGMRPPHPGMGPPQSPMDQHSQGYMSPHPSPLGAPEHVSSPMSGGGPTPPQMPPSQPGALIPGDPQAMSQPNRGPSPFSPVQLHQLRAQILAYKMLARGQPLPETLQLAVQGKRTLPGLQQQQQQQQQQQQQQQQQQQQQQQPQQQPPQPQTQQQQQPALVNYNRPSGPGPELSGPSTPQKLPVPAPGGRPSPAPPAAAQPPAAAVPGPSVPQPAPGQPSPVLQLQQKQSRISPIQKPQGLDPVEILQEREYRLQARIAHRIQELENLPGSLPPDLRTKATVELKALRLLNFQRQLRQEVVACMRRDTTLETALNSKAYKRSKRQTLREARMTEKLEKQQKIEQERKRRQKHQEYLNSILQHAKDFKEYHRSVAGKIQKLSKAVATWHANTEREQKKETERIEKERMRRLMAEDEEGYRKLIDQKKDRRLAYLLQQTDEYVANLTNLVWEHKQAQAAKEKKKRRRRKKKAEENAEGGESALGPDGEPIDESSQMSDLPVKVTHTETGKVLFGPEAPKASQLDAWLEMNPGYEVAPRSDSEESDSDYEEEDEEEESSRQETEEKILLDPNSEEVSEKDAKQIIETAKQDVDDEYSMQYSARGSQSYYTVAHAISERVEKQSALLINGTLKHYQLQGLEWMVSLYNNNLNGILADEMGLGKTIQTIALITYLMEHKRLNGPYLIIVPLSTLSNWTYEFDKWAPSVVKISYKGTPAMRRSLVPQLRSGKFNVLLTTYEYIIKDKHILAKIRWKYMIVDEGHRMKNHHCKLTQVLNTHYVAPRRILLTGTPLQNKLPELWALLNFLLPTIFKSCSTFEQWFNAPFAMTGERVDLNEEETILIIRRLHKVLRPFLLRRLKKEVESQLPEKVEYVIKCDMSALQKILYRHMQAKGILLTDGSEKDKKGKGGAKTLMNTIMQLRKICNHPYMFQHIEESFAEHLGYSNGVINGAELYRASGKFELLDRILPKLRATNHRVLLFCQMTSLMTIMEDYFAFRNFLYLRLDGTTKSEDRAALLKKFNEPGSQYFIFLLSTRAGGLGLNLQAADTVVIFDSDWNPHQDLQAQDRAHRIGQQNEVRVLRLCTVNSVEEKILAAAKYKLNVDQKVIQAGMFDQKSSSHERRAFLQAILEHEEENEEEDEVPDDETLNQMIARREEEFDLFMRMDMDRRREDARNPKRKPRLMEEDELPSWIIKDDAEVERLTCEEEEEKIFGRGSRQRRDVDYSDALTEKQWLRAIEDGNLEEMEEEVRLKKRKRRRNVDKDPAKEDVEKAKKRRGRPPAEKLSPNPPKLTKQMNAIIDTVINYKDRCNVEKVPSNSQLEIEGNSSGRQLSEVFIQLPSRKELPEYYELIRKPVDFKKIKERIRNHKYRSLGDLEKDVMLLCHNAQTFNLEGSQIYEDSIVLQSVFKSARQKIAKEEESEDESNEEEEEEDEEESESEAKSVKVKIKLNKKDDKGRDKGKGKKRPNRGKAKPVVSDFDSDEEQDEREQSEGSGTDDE

BRG-1, sequence (P51532 whole entry): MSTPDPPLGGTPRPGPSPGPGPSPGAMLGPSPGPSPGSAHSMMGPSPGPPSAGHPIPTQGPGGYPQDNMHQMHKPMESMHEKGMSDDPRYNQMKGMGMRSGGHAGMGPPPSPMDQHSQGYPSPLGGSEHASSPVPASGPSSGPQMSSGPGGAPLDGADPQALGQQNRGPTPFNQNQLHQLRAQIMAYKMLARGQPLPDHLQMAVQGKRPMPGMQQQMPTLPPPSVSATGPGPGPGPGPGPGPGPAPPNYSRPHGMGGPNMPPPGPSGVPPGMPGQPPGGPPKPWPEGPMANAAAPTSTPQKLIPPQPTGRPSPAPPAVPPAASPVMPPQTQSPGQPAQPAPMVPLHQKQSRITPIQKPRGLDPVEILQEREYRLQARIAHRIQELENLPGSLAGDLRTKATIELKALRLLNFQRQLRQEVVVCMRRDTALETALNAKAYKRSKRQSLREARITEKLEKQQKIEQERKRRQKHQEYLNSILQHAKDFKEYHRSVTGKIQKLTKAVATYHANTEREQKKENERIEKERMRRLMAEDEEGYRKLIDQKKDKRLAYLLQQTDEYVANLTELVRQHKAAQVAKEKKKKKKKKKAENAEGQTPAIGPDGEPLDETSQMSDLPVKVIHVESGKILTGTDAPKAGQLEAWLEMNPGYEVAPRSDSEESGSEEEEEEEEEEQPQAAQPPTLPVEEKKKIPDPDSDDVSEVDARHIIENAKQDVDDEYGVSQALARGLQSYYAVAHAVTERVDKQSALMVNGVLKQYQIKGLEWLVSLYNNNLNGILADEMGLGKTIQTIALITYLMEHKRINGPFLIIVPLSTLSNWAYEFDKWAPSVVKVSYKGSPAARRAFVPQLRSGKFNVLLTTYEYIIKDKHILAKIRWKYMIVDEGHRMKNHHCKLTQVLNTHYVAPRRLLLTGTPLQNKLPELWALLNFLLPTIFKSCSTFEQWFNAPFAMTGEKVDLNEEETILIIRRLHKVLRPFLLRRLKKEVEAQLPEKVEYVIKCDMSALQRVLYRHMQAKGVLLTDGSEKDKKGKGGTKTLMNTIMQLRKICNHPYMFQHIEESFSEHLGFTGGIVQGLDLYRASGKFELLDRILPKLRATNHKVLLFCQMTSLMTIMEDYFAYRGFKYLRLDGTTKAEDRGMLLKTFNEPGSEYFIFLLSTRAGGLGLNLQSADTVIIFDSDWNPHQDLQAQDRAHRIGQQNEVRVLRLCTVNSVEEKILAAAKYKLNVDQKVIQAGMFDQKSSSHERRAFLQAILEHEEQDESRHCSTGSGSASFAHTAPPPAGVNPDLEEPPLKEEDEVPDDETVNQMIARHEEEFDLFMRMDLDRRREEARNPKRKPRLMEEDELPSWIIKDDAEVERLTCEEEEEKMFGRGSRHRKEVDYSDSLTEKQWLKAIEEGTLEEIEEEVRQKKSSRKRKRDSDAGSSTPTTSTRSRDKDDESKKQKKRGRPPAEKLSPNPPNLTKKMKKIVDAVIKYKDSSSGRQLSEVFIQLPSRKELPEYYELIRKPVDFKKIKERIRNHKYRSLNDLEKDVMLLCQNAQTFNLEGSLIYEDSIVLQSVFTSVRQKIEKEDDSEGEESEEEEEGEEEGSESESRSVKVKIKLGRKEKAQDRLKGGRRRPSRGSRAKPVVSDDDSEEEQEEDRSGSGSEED

Row | SMILES | BRG1 Max % Inhibition (BRG-1; Table 5) | IC50 (BRM) | BRM Max % Inhibition (BRM; Table 5) | IC50 (BRG-1) | BRG1 Max % Inhibition (BRG-1; Table 6) | BRM Max % Inhibition (BRM; Table 6)
1 | CSCC[C@H](NC(=O)c1cccc(S(=O)(=O)N(C)C)c1)C(=O)Nc1nc(-c2ccccc2)cs1 [Compound 24, (S)-3-(N,N-dimethylsulfamoyl)-N-(4-(methylthio)-1-oxo-1-((4-phenylthiazol-2-yl)amino)butan-2-yl)benzamide] | >99% | 1000 to 10000 nM | >70% | – | – | –
2 | O=C(CNC(=O)c1cc2c(s1)CCC2)Nc1nc(-c2ccccc2)cs1 [Compound 79, N-[2-oxo-2-[(4-phenylthiazol-2-yl)amino]ethyl]-5,6-dihydro-4H-cyclopenta[b]thiophene-2-carboxamide] | >30% | < 1000 nM | >30% | 1000 to 10000 nM | – | –
3 | Cn1cnc(-c2cccc(-c3csc(NC(=O)CNC(=O)c4ccc(N)cc4)n3)c2)c1 [Compound 220, 4-amino-N-[2-[[4-[3-(1-methylimidazol-4-yl)phenyl]thiazol-2-yl]amino]-2-oxo-ethyl]benzamide] | – | 100 to 1000 nM | – | 1000 to 10000 nM | >80% | >95%
4 | C[C@H](NC(=O)c1ccc(N)cc1)C(=O)Nc1nc(-c2cccc(-c3ccncc3)c2)cs1 [Compound 125, (S)-4-amino-N-(1-oxo-1-((4-(3-(pyridin-4-yl)phenyl)thiazol-2-yl)amino)propan-2-yl)benzamide] | – | < 100 nM | – | < 100 nM | >95% | >95%
5 | CN(C)S(=O)(=O)c1cccc(C(=O)NCC(=O)Nc2nc(-c3ccccc3)cs2)c1 [Compound 13, 3-(dimethylsulfamoyl)-N-[2-oxo-2-[(4-phenylthiazol-2-yl)amino]ethyl]benzamide] | >30% | 1000 to 10000 nM | >80% | 1000 to 10000 nM | – | –
6 | CNC(=O)c1cccc(-c2csc(NC(=O)CNC(=O)c3cccc(S(=O)(=O)N(C)C)c3)n2)c1 [Compound 4, 3-[2-[[2-[[3-(dimethylsulfamoyl)benzoyl]amino]acetyl]amino]thiazol-4-yl]-N-methyl-benzamide] | >70% | 1000 to 10000 nM | >90% | > 10000 nM | – | –
7 | COc1ccc(-c2cccc(-c3csc(NC(=O)CNC(=O)c4ccc(N)cc4)n3)c2)cn1 [Compound 127, 4-amino-N-(2-((4-(3-(6-methoxypyridin-3-yl)phenyl)thiazol-2-yl)amino)-2-oxoethyl)benzamide] | – | 100 to 1000 nM | – | 100 to 1000 nM | >80% | >90%
8 | CS(=O)(=O)c1cccc(C(=O)NCC(=O)Nc2nc(-c3cccc(-c4ccncn4)c3)cs2)c1 [Compound 90, 3-(methylsulfonyl)-N-(2-oxo-2-((4-(3-(pyrimidin-4-yl)phenyl)thiazol-2-yl)amino)ethyl)benzamide] | – | < 100 nM | – | < 100 nM | >50% | >70%
9 | CN(CC(=O)O)c1cc(-c2cccc(-c3csc(NC(=O)CNC(=O)c4ccc(N)cc4)n3)c2)ccn1 [Compound 200, 2-[[4-[3-[2-[[2-[(4-aminobenzoyl)amino]acetyl]amino]thiazol-4-yl]phenyl]-2-pyridyl]-methyl-amino]acetic acid] | – | < 100 nM | – | < 100 nM | >95% | >95%
10 | Cc1cnccc1-c1cccc(-c2csc(NC(=O)CNC(=O)c3ccc(N)cc3)n2)c1 [Compound 194, 4-amino-N-[2-[[4-[3-(3-methyl-4-pyridyl)phenyl]thiazol-2-yl]amino]-2-oxo-ethyl]benzamide] | – | 100 to 1000 nM | – | 100 to 1000 nM | >80% | >90%
11 | NCC1CCC(c2cccc(-c3csc(NC(=O)CNC(=O)c4ccc(N)cc4)n3)c2)CC1 (stereo not shown) [Compound 169, 4-amino-N-(2-((4-(3-(4-(aminomethyl)cyclohexyl)phenyl)thiazol-2-yl)amino)-2-oxoethyl)benzamide] | – | 100 to 1000 nM | – | 100 to 1000 nM | >95% | >95%
